Data published in US20240270741A1 (Cogent Biosciences, Inc., priority 2023, published 2024).

These compounds were tested against FGFR2 (Homo sapiens, UniProt P21802) (assay: FGFR wild type enzyme assay (HTRF KinEASE-TK), FGFR2). Conditions: Enz FGFR2 (nM).
FGFR2, sequence (P21802 399-821 limits assumed): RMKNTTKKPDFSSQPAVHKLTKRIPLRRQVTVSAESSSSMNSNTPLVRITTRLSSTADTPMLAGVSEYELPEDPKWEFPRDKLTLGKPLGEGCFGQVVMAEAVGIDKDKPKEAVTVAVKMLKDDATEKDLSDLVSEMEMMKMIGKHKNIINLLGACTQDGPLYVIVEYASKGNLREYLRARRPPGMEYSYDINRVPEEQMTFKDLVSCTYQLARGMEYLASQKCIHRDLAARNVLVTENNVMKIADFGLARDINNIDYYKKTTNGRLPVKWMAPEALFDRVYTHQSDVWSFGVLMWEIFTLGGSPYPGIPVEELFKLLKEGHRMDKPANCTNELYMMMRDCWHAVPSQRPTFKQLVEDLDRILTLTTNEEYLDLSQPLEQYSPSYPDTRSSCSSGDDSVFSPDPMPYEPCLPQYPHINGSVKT
In the case of `Cc1c(-c2cc(Sc3ccccc3C#N)c3c(C#N)cnn3c2)cnn1[C@H]1CCNC1` [Example 122, 4-(2-cyanophenyl)sulfanyl-6-[5-methyl-1-[(3S)-pyrrolidin-3-yl]pyrazol-4-yl]pyrazolo[1,5-a]pyridine-3-carbonitrile], the IC50 was 1 nM. `Cc1c(-c2cc(Sc3ccc(Cl)cc3C#N)c3c(C#N)cnn3c2)cnn1C1CCNCC1` [Example 123, 4-(4-chloro-2-cyano-phenyl)sulfanyl-6-[5-methyl-1-(4-piperidyl)pyrazol-4-yl]pyrazolo[1,5-a]pyridine-3-carbonitrile] was tested, and the IC50 was 9 nM. Work on `Cc1c(-c2cc(Sc3ccccc3C#N)c3c(C#N)cnn3c2)cnn1[C@H]1CC[C@@H](N(C)C)CC1` [Example 124] yielded an IC50 of 1 nM. `Cc1c(-c2cc(Sc3ccccc3F)c3c(C#N)cnn3c2)cnn1C1CCN(C)CC1` [Example 125] gave an IC50 of 1 nM. `CN1CCC[C@H]1C(=O)N1CCC(n2cc(-c3cc(Sc4ncccc4F)c4c(C#N)cnn4c3)cn2)CC1` [Example 126, 4-[(3-fluoro-2-pyridyl)sulfanyl]-6-[1-[1-[(2S)-1-methylpyrrolidine-2-carbonyl]-4-piperidyl]pyrazol-4-yl]pyrazolo[1,5-a]pyridine-3-carbonitrile] gave an IC50 of 1 nM. Work on `CN1CCC[C@@H]1C(=O)N1CCC(n2cc(-c3cc(Sc4ncccc4F)c4c(C#N)cnn4c3)cn2)CC1` [Example 127, 4-[(3-fluoro-2-pyridyl)sulfanyl]-6-[1-[1-[(2R)-1-methylpyrrolidine-2-carbonyl]-4-piperidyl]pyrazol-4-yl]pyrazolo[1,5-a]pyridine-3-carbonitrile] yielded an IC50 of 1 nM. `Cc1ccc(Sc2cc(-c3cnn(C4CCNCC4)c3C)cn3ncc(C#N)c23)nc1C` [Example 129] was tested, and the IC50 was 2 nM. `Cc1c(-c2cc(Sc3cccc4c3ncn4C)c3c(C#N)cnn3c2)cnn1C1CCN(C)CC1` [Example 131, 4-(1-methylbenzimidazol-4-yl)sulfanyl-6-[5-methyl-1-(1-methyl-4-piperidyl)pyrazol-4-yl]pyrazolo[1,5-a]pyridine-3-carbonitrile] gave an IC50 of 40 nM. Work on `Cc1c(-c2cc(Sc3cccc4ncn(C)c34)c3c(C#N)cnn3c2)cnn1C1CCN(C)CC1` [Example 132, 4-(3-methylbenzimidazol-4-yl)sulfanyl-6-[5-methyl-1-(1-methyl-4-piperidyl)pyrazol-4-yl]pyrazolo[1,5-a]pyridine-3-carbonitrile] yielded an IC50 of 10 nM. With `Cc1c(-c2cc(Sc3cccc4c3cnn4C)c3c(C#N)cnn3c2)cnn1C1CCN(C)CC1` [Example 133, 4-(1-methylindazol-4-yl)sulfanyl-6-[5-methyl-1-(1-methyl-4-piperidyl)pyrazol-4-yl]pyrazolo[1,5-a]pyridine-3-carbonitrile] the IC50 was 6 nM. `Cc1c(-c2cc(Sc3ccccc3F)c3c(C#N)cnn3c2)cnn1[C@H]1CCCNC1` [Example 134, 4-(2-fluorophenyl)sulfanyl-6-[5-methyl-1-[(3S)-3-piperidyl]pyrazol-4-yl]pyrazolo[1,5-a]pyridine-3-carbonitrile] gave an IC50 of 1 nM.

Same assay, conditions: Enz FGFR2 (nM), FGFR2 wild type enzyme
`Cc1c(-c2cc(Sc3ccc(F)cc3C#N)c3c(C#N)cnn3c2)cnn1C1CCNCC1` [Example 135, 4-4-((2-cyano-4-fluorophenyl)thio)-6-(5-methyl-1-(piperidin-4-yl)-1H-pyrazol-4-yl)pyrazolo[1,5-a]pyridine-3-carbonitrile] gave an IC50 of 1 nM. `Cc1c(-c2cc(Sc3ccccc3F)c3c(C#N)cnn3c2)cnn1[C@@H]1CCCNC1` [Example 136, (R)-4-((2-fluorophenyl)thio)-6-(5-methyl-1-(piperidin-3-yl)-1H-pyrazol-4-yl)pyrazolo[1,5-a]pyridine-3-carbonitrile] was tested, and the IC50 was 4 nM. In the case of `Cc1c(-c2cc(Sc3c(F)cccc3C#N)c3c(C#N)cnn3c2)cnn1C1CCNCC1` [Example 137, 4-((2-cyano-6-fluorophenyl)thio)-6-(5-methyl-1-(piperidin-4-yl)-1H-pyrazol-4-yl)pyrazolo[1,5-a]pyridine-3-carbonitrile], the IC50 was 1 nM. With `Cc1c(-c2cc(Sc3ccccc3C#N)c3c(C#N)cnn3c2)cnn1C1CCN(CCO)CC1` [Example 138, 4-((2-cyanophenyl)thio)-6-(1-(1-(2-hydroxyethyl)piperidin-4-yl)-5-methyl-1H-pyrazol-4-yl)pyrazolo[1,5-a]pyridine-3-carbonitrile] the IC50 was 1 nM. Compound `COCCN1CCC(n2ncc(-c3cc(Sc4ccccc4C#N)c4c(C#N)cnn4c3)c2C)CC1` [Example 139, 4-((2-cyanophenyl)thio)-6-(1-(1-(2-methoxyethyl)piperidin-4-yl)-5-methyl-1H-pyrazol-4-yl)pyrazolo[1,5-a]pyridine-3-carbonitrile] has an IC50 of 1 nM. `CO[C@H](C)CN1CCC(n2ncc(-c3cc(Sc4ccccc4C#N)c4c(C#N)cnn4c3)c2C)CC1` [Example 140, (R)-4-((2-cyanophenyl)thio)-6-(1-(1-(2-methoxypropyl)piperidin-4-yl)-5-methyl-1H-pyrazol-4-yl)pyrazolo[1,5-a]pyridine-3-carbonitrile] was tested, and the IC50 was 1 nM. Compound `Cc1c(-c2cc(Sc3ccccc3C#N)c3c(C#N)cnn3c2)cnn1C1CCN(C[C@@H](C)O)CC1` [Example 141, (R)-4-((2-cyanophenyl)thio)-6-(1-(1-(2-hydroxypropyl)piperidin-4-yl)-5-methyl-1H-pyrazol-4-yl)pyrazolo[1,5-a]pyridine-3-carbonitrile] has an IC50 of 1 nM. In the case of `Cc1c(-c2cc(Sc3ccccc3C#N)c3c(C#N)cnn3c2)cnn1C1CCN(C[C@H](C)O)CC1` [Example 142, (S)-4-((2-cyanophenyl)thio)-6-(1-(1-(2-hydroxypropyl)piperidin-4-yl)-5-methyl-1H-pyrazol-4-yl)pyrazolo[1,5-a]pyridine-3-carbonitrile], the IC50 was 13 nM. For `Cc1c(-c2cc(Sc3ncccc3F)c3c(C#N)cnn3c2)cnn1C1CCN(C[C@@H](C)O)CC1` [Example 143, (R)-4-((3-fluoropyridin-2-yl)thio)-6-(1-(1-(2-hydroxypropyl)piperidin-4-yl)-5-methyl-1H-pyrazol-4-yl)pyrazolo[1,5-a]pyridine-3-carbonitrile], the IC50 was 2 nM. `Cc1c(-c2cc(Sc3ncccc3F)c3c(C#N)cnn3c2)cnn1C1CCN(C[C@H](C)O)CC1` [Example 144, (S)-4-((3-fluoropyridin-2-yl)thio)-6-(1-(1-(2-hydroxypropyl)piperidin-4-yl)-5-methyl-1H-pyrazol-4-yl)pyrazolo[1,5-a]pyridine-3-carbonitrile] showed an IC50 of 1.5 nM. With `Cc1c(-c2cc(Sc3c(F)cc(F)cc3C#N)c3c(C#N)cnn3c2)cnn1C1CCNCC1` [Example 145, 4-((2-cyano-4,6-difluorophenyl)thio)-6-(5-methyl-1-(piperidin-4-yl)-1H-pyrazol-4-yl)pyrazolo[1,5-a]pyridine-3-carbonitrile] the IC50 was 7 nM. Work on `Cc1c(-c2cc(Sc3ncccc3F)c3c(C#N)cnn3c2)cnn1C1CCN([C@@H](C)CO)CC1` [Example 146, (S)-4-((3-fluoropyridin-2-yl)thio)-6-(1-(1-(1-hydroxypropan-2-yl)piperidin-4-yl)-5-methyl-1H-pyrazol-4-yl)pyrazolo[1,5-a]pyridine-3-carbonitrile] yielded an IC50 of 2 nM. `Cc1c(-c2cc(Sc3ncccc3F)c3c(C#N)cnn3c2)cnn1C1CCN([C@H](C)CO)CC1` [Example 147, (R)-4-((3-fluoropyridin-2-yl)thio)-6-(1-(1-(1-hydroxypropan-2-yl)piperidin-4-yl)-5-methyl-1H-pyrazol-4-yl)pyrazolo[1,5-a]pyridine-3-carbonitrile] gave an IC50 of 2 nM.
